Test results taken from ChEMBL document CHEMBL1201862, “PubChem BioAssay data set” (2004).
Activity calls are given as the source filed them.

How the values were obtained:
Cysteine protease ATG4B = Cysteine protease ATG4B (Homo sapiens, UniProt Q9Y4P1); assay: ATG4B protease inhibitors, dose response, biochemical, fluorescence, set 2 (AID 588584); type: functional
[1] = Luminescence Cell-Based Dose Retest to Confirm Inhibitors of Cancer Stem Cells. [Related pubchem assays (depositor defined):AID2717, AID2721]; type: functional; conditions: Homo sapiens
Phospholipase A2 = Phospholipase A2 (Homo sapiens, UniProt P04054); assay: PLA2 enzyme inhibitors, dose response, counter-screen for ATG4B inhibitor project, biochemical, set 2 (AID 588586); type: functional
[2] = molecular target: Tyrosine-protein phosphatase non-receptor type 12 (Homo sapiens, UniProt Q05209); assay: SAR Selectivity Analysis of small molecule inhibitors of PEST using pCAP in a fluorescence assay. [Related pubchem assays (depositor defined):AID1779, AID1784, AID2135]; type: functional
[3] = molecular target: T1, Tyrosine-protein phosphatase non-receptor type 7 (Homo sapiens, UniProt P35236); assay: HePTP (PTPN7) phosphatase inhibitor potency, SAR follow-up, biochemical, set 2 (AID 449736); type: functional
T1 sequence (P35236 whole entry): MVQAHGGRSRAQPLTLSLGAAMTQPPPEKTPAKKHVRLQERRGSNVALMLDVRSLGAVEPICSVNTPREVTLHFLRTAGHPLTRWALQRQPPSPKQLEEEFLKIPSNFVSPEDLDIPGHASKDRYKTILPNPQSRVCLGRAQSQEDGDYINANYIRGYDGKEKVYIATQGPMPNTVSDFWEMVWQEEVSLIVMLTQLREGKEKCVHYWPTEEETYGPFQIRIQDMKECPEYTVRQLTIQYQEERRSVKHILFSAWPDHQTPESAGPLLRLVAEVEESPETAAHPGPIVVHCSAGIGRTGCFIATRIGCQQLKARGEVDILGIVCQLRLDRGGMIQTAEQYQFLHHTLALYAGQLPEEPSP

[4] = molecular target: T2, Tyrosine-protein phosphatase non-receptor type 22 (Homo sapiens, UniProt Q9Y2R2); assay: SAR LYP1 Fluorescent Assay using OMFP substrate for In Vitro dose response studies - Set 3. [Related pubchem assays (depositor defined):AID1779, AID1784, AID2140, AID2686]; type: functional
T2 sequence (Q9Y2R2 whole entry): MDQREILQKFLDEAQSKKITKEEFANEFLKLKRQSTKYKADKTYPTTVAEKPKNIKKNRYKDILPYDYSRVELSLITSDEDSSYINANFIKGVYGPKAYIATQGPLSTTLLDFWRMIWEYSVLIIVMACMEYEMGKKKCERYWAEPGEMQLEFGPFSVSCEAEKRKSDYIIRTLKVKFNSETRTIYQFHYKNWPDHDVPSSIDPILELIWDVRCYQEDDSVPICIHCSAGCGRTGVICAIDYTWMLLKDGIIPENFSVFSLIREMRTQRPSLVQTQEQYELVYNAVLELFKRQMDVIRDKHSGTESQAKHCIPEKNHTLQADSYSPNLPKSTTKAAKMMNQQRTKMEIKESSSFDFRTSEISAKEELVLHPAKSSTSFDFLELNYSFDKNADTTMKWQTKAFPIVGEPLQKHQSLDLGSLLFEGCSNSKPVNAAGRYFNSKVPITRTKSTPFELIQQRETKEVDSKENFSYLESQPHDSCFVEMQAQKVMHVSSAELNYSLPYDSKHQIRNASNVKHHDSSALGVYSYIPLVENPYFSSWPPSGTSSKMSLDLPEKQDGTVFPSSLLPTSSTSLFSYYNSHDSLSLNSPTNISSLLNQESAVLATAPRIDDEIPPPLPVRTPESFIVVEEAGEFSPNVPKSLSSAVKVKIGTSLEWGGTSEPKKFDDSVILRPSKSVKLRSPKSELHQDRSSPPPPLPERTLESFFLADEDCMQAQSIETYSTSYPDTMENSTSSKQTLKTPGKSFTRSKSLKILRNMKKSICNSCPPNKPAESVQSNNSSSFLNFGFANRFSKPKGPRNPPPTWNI

[5] = molecular target: T2, Tyrosine-protein phosphatase non-receptor type 22; assay: SAR LYP1 Fluorescent Assay using OMFP substrate for In Vitro dose response studies - Set 2. [Related pubchem assays (depositor defined):AID1779, AID1784, AID2140, AID449726, AID488869]; type: functional
[6] = molecular target: T2, Tyrosine-protein phosphatase non-receptor type 22; type: functional
[7] = molecular target: T3, Heat shock factor protein 1 (Mus musculus, UniProt P38532); assay: HSF1 potentiators in luciferase reporter cells, confirmation, cell-based, NIH3T3, luminescence, dose retest (AID 435004); type: functional;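 further: stress induced by proteasome inhibitor MG132 added 30 min after compound; luciferase reporter driven by HSF1 response element in NIH3T3 cells; actives raise luminescence as potentiators of the MG132 stress response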
T3 sequence (P38532 whole entry): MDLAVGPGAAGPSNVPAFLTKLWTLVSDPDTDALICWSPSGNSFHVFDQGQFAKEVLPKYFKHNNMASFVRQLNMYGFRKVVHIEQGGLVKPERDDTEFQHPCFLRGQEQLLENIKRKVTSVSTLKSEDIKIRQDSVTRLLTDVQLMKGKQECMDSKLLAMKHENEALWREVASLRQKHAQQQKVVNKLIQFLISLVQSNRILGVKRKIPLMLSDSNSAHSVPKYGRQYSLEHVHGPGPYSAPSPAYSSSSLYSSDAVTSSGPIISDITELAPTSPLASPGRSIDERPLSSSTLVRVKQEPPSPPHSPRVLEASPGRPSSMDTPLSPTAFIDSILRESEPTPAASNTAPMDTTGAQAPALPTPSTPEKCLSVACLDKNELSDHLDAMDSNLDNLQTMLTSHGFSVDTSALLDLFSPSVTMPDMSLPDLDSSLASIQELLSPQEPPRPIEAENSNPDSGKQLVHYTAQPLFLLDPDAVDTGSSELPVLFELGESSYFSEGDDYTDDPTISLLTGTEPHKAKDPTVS

[8] = molecular target: T1, Tyrosine-protein phosphatase non-receptor type 7; type: functional
[9] = molecular target: T2, Tyrosine-protein phosphatase non-receptor type 22; assay: PubChem AID 2135
[10] = molecular target: T2, Tyrosine-protein phosphatase non-receptor type 22; assay: SAR LYP1 Fluorescent Assay using pCAP substrate for In Vitro dose response studies - Set 2. [Related pubchem assays (depositor defined):AID1779, AID1784, AID2135, AID449727]; type: functional
[11] = molecular target: T2, Tyrosine-protein phosphatase non-receptor type 22; assay: inhibitors of LYP phosphatase, biochemical, fluorescence intensity, uHTS (AID 1779)
[12] = molecular target: T2, Tyrosine-protein phosphatase non-receptor type 22; assay: PubChem AID 2140
[13] = molecular target: T2, Tyrosine-protein phosphatase non-receptor type 22; type: functional; remark: listed apart in the source
[14] = molecular target: T4, Apoptotic protease-activating factor 1 (Homo sapiens, UniProt O14727); assay: activation of Apaf-1 mediated apoptosis – fluorescent, uHTS hits, dose response (AID 588554); type: functional
T4 sequence (O14727 whole entry): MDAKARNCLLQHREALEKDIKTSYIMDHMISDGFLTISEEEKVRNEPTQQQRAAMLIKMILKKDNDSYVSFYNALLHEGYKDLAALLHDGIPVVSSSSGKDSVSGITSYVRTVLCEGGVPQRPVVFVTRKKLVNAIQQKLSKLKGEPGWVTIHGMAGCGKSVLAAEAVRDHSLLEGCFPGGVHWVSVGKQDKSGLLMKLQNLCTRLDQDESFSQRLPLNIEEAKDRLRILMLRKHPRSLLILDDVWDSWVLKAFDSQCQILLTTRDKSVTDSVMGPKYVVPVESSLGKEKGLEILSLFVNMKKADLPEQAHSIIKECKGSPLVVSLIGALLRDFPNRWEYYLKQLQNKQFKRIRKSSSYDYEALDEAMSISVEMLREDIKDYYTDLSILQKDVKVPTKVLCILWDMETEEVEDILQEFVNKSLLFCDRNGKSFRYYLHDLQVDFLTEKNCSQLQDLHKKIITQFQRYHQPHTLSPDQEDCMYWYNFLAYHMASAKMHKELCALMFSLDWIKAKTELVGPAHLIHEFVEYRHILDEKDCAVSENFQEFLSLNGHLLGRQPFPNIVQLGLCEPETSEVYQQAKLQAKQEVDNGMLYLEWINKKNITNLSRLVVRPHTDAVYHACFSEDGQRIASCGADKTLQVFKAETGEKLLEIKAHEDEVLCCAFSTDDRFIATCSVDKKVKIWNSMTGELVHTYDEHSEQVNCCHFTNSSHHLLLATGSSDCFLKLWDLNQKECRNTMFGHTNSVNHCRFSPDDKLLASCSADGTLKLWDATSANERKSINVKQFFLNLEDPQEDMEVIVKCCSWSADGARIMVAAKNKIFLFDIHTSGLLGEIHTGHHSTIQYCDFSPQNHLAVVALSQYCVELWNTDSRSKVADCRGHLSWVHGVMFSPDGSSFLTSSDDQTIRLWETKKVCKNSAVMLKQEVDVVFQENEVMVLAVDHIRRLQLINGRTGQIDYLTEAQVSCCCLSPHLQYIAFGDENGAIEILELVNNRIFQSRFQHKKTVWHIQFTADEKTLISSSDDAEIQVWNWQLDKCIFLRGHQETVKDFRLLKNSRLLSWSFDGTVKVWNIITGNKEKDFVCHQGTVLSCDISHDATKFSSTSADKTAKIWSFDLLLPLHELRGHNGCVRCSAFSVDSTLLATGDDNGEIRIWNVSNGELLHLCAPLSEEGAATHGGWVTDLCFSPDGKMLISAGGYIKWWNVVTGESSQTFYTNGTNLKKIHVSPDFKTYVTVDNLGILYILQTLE

Escherichia coli = assay: microbe, parasite or virus in culture
Fatty acid synthase [15] = molecular target: T5, Fatty acid synthase (Homo sapiens, UniProt P49327); assay: FAS thioesterase domain inhibitors, dose response, biochemical, kinetic fluorescence intensity (AID 624326); type: functional;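 further: rate of fluorescence rise from hydrolysis of a fluorogenic O-methyl fluorescein ester substrate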
Fatty acid synthase [16] = molecular target: T5, Fatty acid synthase; assay: FAS thioesterase domain inhibitors, dose response, biochemical, endpoint fluorescence intensity, uHTS hits (AID 624327); type: functional;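 further: fluorescence from hydrolysis of an O-methyl fluorescein acyl ester substrate by the enzyme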
[17] = molecular target: T6, Corticotropin-releasing factor receptor 2/Corticotropin-releasing factor-binding protein (Homo sapiens, UniProt P24387+Q13324); assay: activators of CRF receptor 2 with binding protein – uHTS hits, confirmation (AID 602473); type: functional; conditions: read-out: EC50_Mean
T6 sequence (Q13324 whole entry): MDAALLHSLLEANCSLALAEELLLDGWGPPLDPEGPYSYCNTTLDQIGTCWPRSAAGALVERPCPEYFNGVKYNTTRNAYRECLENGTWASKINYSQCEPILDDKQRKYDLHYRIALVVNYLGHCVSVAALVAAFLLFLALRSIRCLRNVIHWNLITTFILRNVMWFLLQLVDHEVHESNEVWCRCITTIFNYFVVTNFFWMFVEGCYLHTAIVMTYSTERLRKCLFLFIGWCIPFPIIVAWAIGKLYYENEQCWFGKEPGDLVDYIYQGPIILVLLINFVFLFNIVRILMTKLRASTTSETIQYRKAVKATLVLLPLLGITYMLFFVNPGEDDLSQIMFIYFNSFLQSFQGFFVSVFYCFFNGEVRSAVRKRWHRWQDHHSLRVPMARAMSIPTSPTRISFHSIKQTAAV
T6 sequence (P24387 whole entry): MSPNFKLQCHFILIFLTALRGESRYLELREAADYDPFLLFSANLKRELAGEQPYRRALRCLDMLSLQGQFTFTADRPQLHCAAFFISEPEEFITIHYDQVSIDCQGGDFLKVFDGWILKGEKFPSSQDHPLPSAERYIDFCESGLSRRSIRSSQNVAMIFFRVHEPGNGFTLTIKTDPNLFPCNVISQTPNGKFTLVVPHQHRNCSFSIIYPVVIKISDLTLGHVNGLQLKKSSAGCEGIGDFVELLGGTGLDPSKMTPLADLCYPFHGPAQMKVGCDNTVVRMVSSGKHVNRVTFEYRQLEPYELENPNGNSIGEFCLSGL

Keap1/Nrf2 = Keap1/Nrf2 (Homo sapiens, UniProt Q14145); assay: Keap1-Nrf2 protein-protein interaction inhibitors, dose response, biochemical, fluorescence polarization, cherry-picked samples (AID 588683)
[18] = molecular target: T6, Corticotropin-releasing factor receptor 2/Corticotropin-releasing factor-binding protein; assay: Dose Response confirmation of uHTS hits for small molecule antagonists of the CRF-binding protein and CRF-R2 receptor complex.; type: functional; conditions: read-out: IC50_Mean

T5 sequence (P49327 whole entry, the tested form may be a part): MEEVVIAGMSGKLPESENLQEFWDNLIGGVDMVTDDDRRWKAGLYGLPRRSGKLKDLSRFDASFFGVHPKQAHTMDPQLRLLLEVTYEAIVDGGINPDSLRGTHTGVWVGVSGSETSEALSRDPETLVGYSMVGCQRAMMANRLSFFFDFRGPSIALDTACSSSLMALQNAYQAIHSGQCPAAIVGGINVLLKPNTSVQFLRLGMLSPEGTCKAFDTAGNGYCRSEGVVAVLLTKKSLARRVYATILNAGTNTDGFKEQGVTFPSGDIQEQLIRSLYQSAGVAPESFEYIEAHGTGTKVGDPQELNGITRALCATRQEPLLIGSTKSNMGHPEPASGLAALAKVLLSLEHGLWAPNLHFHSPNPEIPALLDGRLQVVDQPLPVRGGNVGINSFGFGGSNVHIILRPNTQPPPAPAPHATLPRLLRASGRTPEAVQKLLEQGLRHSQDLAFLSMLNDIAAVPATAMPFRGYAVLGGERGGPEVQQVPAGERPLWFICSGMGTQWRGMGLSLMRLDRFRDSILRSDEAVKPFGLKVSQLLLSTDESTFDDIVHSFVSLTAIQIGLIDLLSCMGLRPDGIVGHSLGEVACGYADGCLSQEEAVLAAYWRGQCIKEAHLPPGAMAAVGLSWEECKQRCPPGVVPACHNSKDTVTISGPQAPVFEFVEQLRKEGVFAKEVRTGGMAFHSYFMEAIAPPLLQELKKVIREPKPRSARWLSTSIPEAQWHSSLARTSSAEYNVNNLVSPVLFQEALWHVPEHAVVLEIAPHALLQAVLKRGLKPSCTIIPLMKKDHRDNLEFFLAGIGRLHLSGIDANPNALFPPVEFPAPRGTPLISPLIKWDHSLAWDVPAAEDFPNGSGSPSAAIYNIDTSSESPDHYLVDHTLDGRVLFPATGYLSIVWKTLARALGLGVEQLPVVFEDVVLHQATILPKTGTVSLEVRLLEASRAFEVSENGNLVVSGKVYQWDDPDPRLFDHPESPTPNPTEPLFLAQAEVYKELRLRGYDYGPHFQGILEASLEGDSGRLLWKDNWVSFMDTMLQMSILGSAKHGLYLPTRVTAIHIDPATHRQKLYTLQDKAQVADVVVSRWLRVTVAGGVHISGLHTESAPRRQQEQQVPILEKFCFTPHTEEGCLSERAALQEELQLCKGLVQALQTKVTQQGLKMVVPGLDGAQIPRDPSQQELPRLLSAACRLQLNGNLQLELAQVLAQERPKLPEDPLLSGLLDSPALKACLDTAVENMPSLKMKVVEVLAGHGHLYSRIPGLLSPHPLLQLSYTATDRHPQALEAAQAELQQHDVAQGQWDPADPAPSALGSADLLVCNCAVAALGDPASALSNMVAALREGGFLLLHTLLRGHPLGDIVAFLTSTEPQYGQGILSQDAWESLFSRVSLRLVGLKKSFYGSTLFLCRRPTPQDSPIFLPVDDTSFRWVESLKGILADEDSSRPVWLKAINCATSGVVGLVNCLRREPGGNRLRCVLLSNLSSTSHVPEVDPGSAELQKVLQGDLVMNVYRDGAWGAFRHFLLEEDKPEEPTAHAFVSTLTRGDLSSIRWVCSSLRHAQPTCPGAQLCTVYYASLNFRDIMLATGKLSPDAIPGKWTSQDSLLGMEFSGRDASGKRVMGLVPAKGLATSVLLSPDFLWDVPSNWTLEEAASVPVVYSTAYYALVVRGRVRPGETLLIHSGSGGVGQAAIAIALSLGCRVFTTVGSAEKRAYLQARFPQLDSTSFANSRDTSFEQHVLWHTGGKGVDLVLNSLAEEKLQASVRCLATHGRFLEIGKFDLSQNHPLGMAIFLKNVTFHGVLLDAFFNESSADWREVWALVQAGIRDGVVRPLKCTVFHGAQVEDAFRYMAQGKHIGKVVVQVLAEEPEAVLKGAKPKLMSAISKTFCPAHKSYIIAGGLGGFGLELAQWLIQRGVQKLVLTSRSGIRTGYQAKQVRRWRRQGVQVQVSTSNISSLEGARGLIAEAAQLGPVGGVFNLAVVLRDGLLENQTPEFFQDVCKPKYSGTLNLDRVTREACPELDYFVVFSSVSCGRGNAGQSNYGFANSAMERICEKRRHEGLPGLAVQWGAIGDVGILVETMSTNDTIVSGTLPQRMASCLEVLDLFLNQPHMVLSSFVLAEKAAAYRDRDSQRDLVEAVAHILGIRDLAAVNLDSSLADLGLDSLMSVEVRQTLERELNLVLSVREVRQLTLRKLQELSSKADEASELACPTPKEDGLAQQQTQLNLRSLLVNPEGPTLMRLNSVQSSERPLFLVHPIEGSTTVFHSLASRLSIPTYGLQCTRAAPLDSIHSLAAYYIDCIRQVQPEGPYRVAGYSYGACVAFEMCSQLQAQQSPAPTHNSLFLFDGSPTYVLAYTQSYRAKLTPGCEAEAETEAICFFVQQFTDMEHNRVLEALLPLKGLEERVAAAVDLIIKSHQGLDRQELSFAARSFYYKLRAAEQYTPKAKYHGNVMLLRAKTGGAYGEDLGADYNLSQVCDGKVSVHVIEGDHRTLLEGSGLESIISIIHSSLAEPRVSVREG
Chain of Tyrosine-protein phosphatase non-receptor type 12 (Q05209 whole entry): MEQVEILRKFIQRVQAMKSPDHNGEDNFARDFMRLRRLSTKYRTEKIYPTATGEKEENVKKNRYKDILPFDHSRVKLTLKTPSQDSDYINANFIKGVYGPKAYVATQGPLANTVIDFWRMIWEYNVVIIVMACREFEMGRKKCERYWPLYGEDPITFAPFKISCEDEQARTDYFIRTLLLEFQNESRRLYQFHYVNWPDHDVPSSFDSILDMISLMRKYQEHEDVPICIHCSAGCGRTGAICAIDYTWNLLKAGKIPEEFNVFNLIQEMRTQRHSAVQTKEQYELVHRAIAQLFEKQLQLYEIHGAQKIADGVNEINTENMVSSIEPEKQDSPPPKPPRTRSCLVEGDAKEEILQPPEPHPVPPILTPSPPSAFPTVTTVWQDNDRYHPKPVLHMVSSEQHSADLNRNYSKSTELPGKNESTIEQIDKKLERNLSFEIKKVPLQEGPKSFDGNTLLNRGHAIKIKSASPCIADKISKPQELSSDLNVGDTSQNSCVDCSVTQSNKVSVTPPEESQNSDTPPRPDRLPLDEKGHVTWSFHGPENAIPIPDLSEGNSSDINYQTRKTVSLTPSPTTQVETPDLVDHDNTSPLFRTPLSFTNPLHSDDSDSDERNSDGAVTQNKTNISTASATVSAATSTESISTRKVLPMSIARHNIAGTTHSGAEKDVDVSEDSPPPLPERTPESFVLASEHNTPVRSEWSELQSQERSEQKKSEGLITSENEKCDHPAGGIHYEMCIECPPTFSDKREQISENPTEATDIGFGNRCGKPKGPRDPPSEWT
Chain of Cysteine protease ATG4B (Q9Y4P1 whole entry): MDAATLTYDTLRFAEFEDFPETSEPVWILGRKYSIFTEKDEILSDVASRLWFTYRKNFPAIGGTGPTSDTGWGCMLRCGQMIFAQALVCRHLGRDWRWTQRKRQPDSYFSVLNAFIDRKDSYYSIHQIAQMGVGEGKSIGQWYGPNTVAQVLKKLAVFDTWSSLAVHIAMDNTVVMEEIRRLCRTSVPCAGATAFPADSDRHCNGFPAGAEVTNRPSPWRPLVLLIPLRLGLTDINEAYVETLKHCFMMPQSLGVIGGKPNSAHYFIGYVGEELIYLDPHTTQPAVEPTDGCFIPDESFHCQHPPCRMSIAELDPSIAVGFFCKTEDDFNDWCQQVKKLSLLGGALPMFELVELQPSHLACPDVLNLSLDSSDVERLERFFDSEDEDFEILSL
Chain of Keap1/Nrf2 (Q16236 whole entry): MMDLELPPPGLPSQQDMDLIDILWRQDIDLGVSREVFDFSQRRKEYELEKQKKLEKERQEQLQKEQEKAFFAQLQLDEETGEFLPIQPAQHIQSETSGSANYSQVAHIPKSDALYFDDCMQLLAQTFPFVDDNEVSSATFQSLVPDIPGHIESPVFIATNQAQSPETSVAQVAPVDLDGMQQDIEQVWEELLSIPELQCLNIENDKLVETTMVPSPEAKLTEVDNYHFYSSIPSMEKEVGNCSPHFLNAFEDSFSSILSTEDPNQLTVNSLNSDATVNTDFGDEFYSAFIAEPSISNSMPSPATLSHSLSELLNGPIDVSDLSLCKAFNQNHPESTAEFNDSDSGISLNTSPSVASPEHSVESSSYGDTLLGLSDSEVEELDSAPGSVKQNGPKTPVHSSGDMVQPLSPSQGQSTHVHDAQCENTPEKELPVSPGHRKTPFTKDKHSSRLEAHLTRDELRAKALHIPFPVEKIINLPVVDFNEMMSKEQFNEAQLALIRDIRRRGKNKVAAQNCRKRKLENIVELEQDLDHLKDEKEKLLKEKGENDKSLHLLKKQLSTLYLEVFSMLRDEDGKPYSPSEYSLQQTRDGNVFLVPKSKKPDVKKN
Chain of Keap1/Nrf2 (Q14145 whole entry): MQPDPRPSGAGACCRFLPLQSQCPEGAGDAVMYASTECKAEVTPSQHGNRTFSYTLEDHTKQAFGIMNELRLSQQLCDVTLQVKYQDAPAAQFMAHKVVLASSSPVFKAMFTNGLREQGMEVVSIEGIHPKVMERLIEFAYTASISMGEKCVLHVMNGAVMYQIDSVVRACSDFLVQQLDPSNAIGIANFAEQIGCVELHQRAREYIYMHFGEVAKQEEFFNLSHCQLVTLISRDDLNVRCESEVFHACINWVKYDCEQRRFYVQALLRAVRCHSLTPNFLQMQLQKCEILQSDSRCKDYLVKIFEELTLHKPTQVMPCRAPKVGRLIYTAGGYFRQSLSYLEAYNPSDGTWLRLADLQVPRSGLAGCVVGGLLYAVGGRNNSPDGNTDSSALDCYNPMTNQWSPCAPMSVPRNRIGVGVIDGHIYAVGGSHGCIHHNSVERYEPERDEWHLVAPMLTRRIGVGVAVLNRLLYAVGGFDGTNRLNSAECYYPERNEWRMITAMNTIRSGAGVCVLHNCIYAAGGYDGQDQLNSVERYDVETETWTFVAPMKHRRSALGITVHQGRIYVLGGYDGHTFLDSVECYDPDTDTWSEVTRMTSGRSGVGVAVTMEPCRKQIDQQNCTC
Chain of Phospholipase A2 (P04054 whole entry): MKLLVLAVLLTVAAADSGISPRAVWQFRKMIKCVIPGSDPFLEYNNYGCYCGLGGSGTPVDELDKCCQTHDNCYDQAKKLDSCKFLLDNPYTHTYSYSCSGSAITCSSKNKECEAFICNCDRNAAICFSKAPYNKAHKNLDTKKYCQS

COc1ccc(OC)c(NC(=O)c2nnn(Cc3ccccc3C)c2N)c1
active: IC50 (Cysteine protease ATG4B) 19.9 µM | AC50 [1] 2.47 µM | IC50 (Phospholipase A2) 13.4 µM

N#C/C(=C\c1ccc(OCc2ccc(Cl)cc2)cc1)C(=O)Nc1cccc(C(=O)O)c1
active: IC50 [2] 2.91 µM | IC50 [3] 651 nM | IC50 [4] 4.74 µM | IC50 [5] 3.77 µM | IC50 [6] 6.42 µM | EC50 [7] 10.9 µM | IC50 [8] 14.6 µM | IC50 [9] 4.96 µM | IC50 [10] 6.54 µM | IC50 [11] 8.62 µM | IC50 [12] 34.2 µM | IC50 [13] 6.86 µM | EC50 [14] 20.8 µM

CCn1c(=O)c2c3c(sc2n2c(S)nnc12)CCC3
active: AC50 (Escherichia coli) 24.2 µM

COc1ccc(C(C)=NNc2ccc([N+](=O)[O-])cc2S(=O)(=O)Nc2ccccc2C(=O)O)c(OC)c1
active: IC50 (Fatty acid synthase [15]) 9.07 µM | IC50 (Fatty acid synthase [16]) 13.3 µM | EC50 [17] 38.6 µM | AC50 (Keap1/Nrf2) 25.7 µM | IC50 [18] 754 nM
